Results reported in US9145375B2, “Quinazolinone compounds” (PRANA BIOTECHNOLOGY LIMITED, priority 2008, dated 2015).
pIC50: −log10 of the molar value. Where “and” joins values, the source holds several entries; their conditions need not be identical. Identical values can stand only once.

What was measured:
[1] = test system: M17 human neuroblastoma cells; experiment: Metal Uptake Assay (metal transport); format: cell-based; conditions: 10 μM Cu + 10 μM compound, 5 hours
Procedure: Assay 3. Metal Uptake Assay
M17 human neuroblastoma cells are plated out on 6 well plates and left overnight. Enough cells are added to give approximately 70% confluent the following day of the experiment. Test compounds are added to media and mixed with equi-molar amounts of CuCl2 solution. A=10 μM Cu+10 μM MPAC; B=10 μM Cu+10 μM MPAC.
Cells are incubated in 1 ml of media/MPAC/Cu mix for 5 hours at 37° C. At the end of the incubation the media is removed with a vacuum aspirator and 1 ml of PBS added to dislodge the cells. Cells are then put into Eppendorf tubes and pelleted. The PBS is removed and the remaining cell pellets are frozen at −20 C.
The cell pellets are prepared as follows:
Received cell pellets of similar levels in 1.5 ml microfuge tubes. Added 50 μl of concentrated Nitric Acid (Aristar, BDH) to each cell pellet and allowed them to digest over night. Heated the samples for 20 min at 90° C. to complete the digestion. The volume of each sample was reduced to ˜45 ul after digestion. Added 1 ml of the 1% Nitric Acid diluent to each sample. (referred to as the “preparation solution” samples).
Measurements were made using a Varian UltraMass ICPMS instrument under operating conditions suitable for routine multi-element analysis.
The instrument was calibrated using Blank, 10, 50 and 100 ppb of a certified multi-element ICPMS standard solution (ICP-MS—CAI2-1, Accustandard) for Fe, Cu and Zn in 1% nitric acid. Used an certified internal standard solution containing 100 ppb Yttrium (Y 89) as an internal control (ICP-MS—IS-MIX1-1, Accustandard).

[2] = test system: generation of hydrogen peroxide (H2O2) by iron; experiment: H2O2 Inhibition Assay; format: biochemical
Procedure: Assay 1. H2O2 Inhibition Assay.
(§1) This fluoresence assay evaluates the ability of a test compound to inhibit the generation of hydrogen peroxide (H2O2) by iron in the presence of a reducing substrate such as ascorbic acid. In the assay, iron in the form of FeCl3 or copper is allowed to react with ascorbic acid by incubating for 1 hr at 37° C. in the presence of the fluorescing compound DCF and horseradish peroxidase. H2O2 generated by the system is assessed by measuring the specific fluorescence profile at the excitation and emission wavelengths of 485 and 530 nm respectively, in the presence of increasing concentrations of test compound. Test compounds are ranked according to their capacity to inhibit H2O2 generated by the system where lower values reflect greater ability to inhibit H2O2 production.

Fe-DA = experiment: H2O2 assay, Fe-DA (% cf. Fe 0.4 μM/DA 50 μM); format: biochemical; conditions: Fe 0.4 μM/DA 50 μM
Procedure: as §1

Neuronal cortical cells = experiment: Cytotox (% viable); Primary Neuronal Cells Neurotoxicity Assay; format: cell-based, mouse; conditions: cell type not given, repeat values given
Procedure: Assay 2 (a). Primary Neuronal Cells Neurotoxicity Assays
Cortical cultures were prepared as previously described (White et al., 1998). Embryonic day 14 BL6Jx129sv mouse cortices were removed, dissected free of meninges and dissociated in 0.025% (wt/vol) trypsin. Dissociated cells were plated in 48 well culture plates at a density of 2×10^6 cells/mL in MEM with 25% (vol/vol) FCS and 5% (vol/vol) HS and incubated at 37° C., 2 hrs. Media was then replaced with Neurobasal media (Invitrogen Life Technologies) and B27 supplements (Invitrogen Life Technologies). Cultures were maintained at 37° C. in 5% CO2. Prior to experimentation, the culture medium was replaced with Neurobasal media and B27 minus antioxidants (Invitrogen Life Technologies).
Neuronal cortical cells were cultured for five days as per Assay 2 in NB media and B27 supplement.
On day six the test compounds were added to the neuronal cell cultures in NB media and B27 supplement minus antioxidants.
Test compounds were dissolved in 100% DMSO to a concentration of 2.5 mM (10 mM if excess compound was weighed out per vial—then diluted to 2.5 mM). 2.5 mM stock solution was serially diluted 1 in 10 to give working solutions of 250 uM, 25 uM, 2.5 uM. Test compounds were not added directly to cells, instead they were added to a 48 well ‘Drug Plate’ as comprised below: • Preparation of “Drug Plate”:
Well 1: 576 ul NB+B27 (no antioxidant)*+24 ul 2.5 uM test compound
Well 2: 576 ul NB+B27 (no antioxidant)+24 μl 25 uM test compound
Well 3: 576 ul NB+B27 (no antioxidant)+24 ul 250 uM test compound
Well 4: 576 ul NB+B27 (no antioxidant)+24 ul 2.5 uM test compound
Well 5: 576 ul NB+B27 (no antioxidant)+24 ul 25 uM test compound
Well 6: 576 ul NB+B27 (no antioxidant)+24 ul 250 uM test compound
Well 7: 576 ul NB+B27 (no antioxidant)+24 ul test compound diluent**
Well 8: 600 ul NB+B27 (no antioxidant)
The Drug Plate was incubated at 37° C. for 15 mins. 200 ul of each well was added in triplicate to the corresponding cell plate. The cell plate was incubated at 37° C., for 4 days, (2 compounds are tested on each plate of cells).
*NB media and B27 (no antioxidants),
**PBT diluent 10% DMSO in NB+1327 (no antioxidants)
On completion of the assay, 1/10 volume MTS was added per well of plate (ie 25 ul/250 ul). The plates were incubated at 37° C. for 2 hrs, and then absorbance was read at 560 nm.

| pIC50 [2] | Compound | Metal transport [1] | Fe-DA % cf. Fe 0.4 μM/DA 50 μM (Fe-DA) [%] | Cytotox (% viable at 1 uM) (Neuronal cortical cells) | Cytotox (% viable at 10 uM) (Neuronal cortical cells) |
| --- | --- | --- | --- | --- | --- |
| 6.24 | C#CCN(C)Cc1nc2c(O)c(Cl)cc(Cl)c2c(=O)n1CC [Compound F4392] | Metal transport 161% | 72 | – | – |
| 6.30 | Cn1c(CN2CCCCC2)nc2c(O)c(Cl)cc(Cl)c2c1=O [Compound F4475] | Metal transport 8% | 80 | – | – |
| 6.66 | CCCNCc1nc2c(O)c(Cl)cc(Cl)c2c(=O)n1C [Compound F4477] | Metal transport 16% | 65 | – | – |
| 6.33 | CN(Cc1ccc(F)cc1)Cc1nc2c(O)c(Cl)cc(Cl)c2c(=O)n1CC1CC1 [Compound F4480] | Metal transport 138% | 46 | 91.6% and 106.7% | 30.3% and 33.3% |
| 6.12 | CCn1c(CN(C)Cc2ccc(F)cc2)nc2c(O)c(Cl)cc(Cl)c2c1=O [Compound F4487] | Metal transport 133% | 53 | – | – |
| 5.94 | CCCn1c(CN2CCCCC2)nc2c(O)c(Cl)cc(Cl)c2c1=O [Compound F4492] | Metal transport 18% | 55 | – | – |
| 5.72 | O=c1c2c(Cl)cc(Cl)c(O)c2nc(CN2CCCC2)n1CC1CC1 [Compound F4499] | Metal transport 15% | 55 | 99.1% and 76.5% | 68.6% and 78.1% |
| 6.54 | CCCn1c(CN(C)C)nc2c(O)c(Cl)cc(Cl)c2c1=O [Compound F4530] | Metal transport 24% | 57 | 105.0% and 96.2% | 57.6% and 41.4% |
| 6.06 | CCCN(CCC)Cc1nc2c(O)c(Cl)cc(Cl)c2c(=O)n1CC1CC1 [Compound F4535] | Metal transport 25% | 62 | 87.0% and 103.0% | 63.6% and 59.8% |
| 6.00 | CN(Cc1nc2c(O)c(Cl)cc(Cl)c2c(=O)n1CC1CC1)C1CCCCC1 [Compound F4536] | Metal transport 24% | 81 | 92.7% and 105.1% and 109.8% | – |
| < 5.00 | CCCn1c(CNCC)nc2c(O)c(Cl)cc(Cl)c2c1=O [Compound F4540] | Metal transport 14% | 122 | 100.4% and 111.5% | 83.4% and 96.5% |
| 6.13 | CCCn1c(CN(CC)CC)nc2c(O)c(Cl)cc(Cl)c2c1=O [Compound F4541] | Metal transport 13% | 107 | 97.3% and 96.4% | 76.6% and 90.8% |
| 6.44 | CCCNCc1nc2c(O)c(Cl)cc(Cl)c2c(=O)n1CCC [Compound F4542] | Metal transport 30% | 47 | 105.8% and 102.9% and 94.3% | – |
| 6.30 | CCCN(CCC)Cc1nc2c(O)c(Cl)cc(Cl)c2c(=O)n1CCC [Compound F4543] | Metal transport 62% | 71 | 92.0% and 107.4% | 52.6% and 61.5% |
| 6.08 | CNCc1nc2c(O)c(Cl)cc(Cl)c2c(=O)n1CC(C)C [Compound F4544] | Metal transport 19% | 164 | 84.0% and 86.9% | 29.7% and 26.7% |
| 6.37 | CCNCc1nc2c(O)c(Cl)cc(Cl)c2c(=O)n1CC(C)C [Compound F4545] | Metal transport 40% | 148 | 86.4% and 85.0% | 36.2% and 28.0% |
| 6.34 | CCN(CC)Cc1nc2c(O)c(Cl)cc(Cl)c2c(=O)n1CC(C)C [Compound F4546] | Metal transport 21% | 66 | 95.6% and 92.2% and 103.3% | 63.7% and 86.5% and 100.3% |
| 6.30 | CCCNCc1nc2c(O)c(Cl)cc(Cl)c2c(=O)n1CC(C)C [Compound F4547] | Metal transport 54% | 34 | 75.0% and 83.9% | 25.2% and 26.0% |
| 6.42 | CCCN(CCC)Cc1nc2c(O)c(Cl)cc(Cl)c2c(=O)n1CC(C)C [Compound F4548] | Metal transport 38% | 40 | 96.5% and 96.0% | 55.9% and 46.0% |
| 6.52 | CCCNCc1nc2c(O)c(Cl)cc(Cl)c2c(=O)n1CC [Compound F4549] | Metal transport 22% | 40 | 98.5% and 99.7% | 44.6% and 52.1% |
| 6.12 | CCCN(CCC)Cc1nc2c(O)c(Cl)cc(Cl)c2c(=O)n1CC [Compound F4550] | Metal transport 35% | 128 | 88.7% and 94.7% | 71.7% and 83.5% |
| 6.35 | CCCN(CCC)Cc1nc2c(O)c(Cl)cc(Cl)c2c(=O)n1C [Compound F4551] | Metal transport 30% | 56 | 89.7% and 96.9% | 50.7% and 62.5% |
| 6.20 | CCCCN(C)Cc1nc2c(O)c(Cl)cc(Cl)c2c(=O)n1C [Compound F4552] | Metal transport 94% | 59 | 97.8% and 99.0% | 58.7% and 62.8% |
| 6.30 | CCN(C)Cc1nc2c(O)c(Cl)cc(Cl)c2c(=O)n1CC1CC1 [Compound F4581] | – | – | – | – |
| 6.26 | CCN(C)Cc1nc2c(O)c(Cl)cc(Cl)c2c(=O)n1C [Compound F4582] | – | – | – | – |
